Counter-ions that a name gives are not always drawn.
Assays:
[1] = target: MET (human) (Homo sapiens, UniProt P08581); assay: MET kinase AlphaScreen assay (Km of ATP); assay type: biochemical; settings: ATP at Km; at least duplicate experiments
Procedure: (§1) Person skilled in the art will appreciate that a variety of assay formats may be used to determine the activity of the compounds of this invention. For example, AlphaScreen (Amplified Luminescent Proximity Homogeneous Assay) technology was used with the kinases described below. Assay ATP concentrations for individual kinases are included in the text.
MET (human)—Km of ATP: MET assay is performed in a 384 well assay containing 200 ng/μL biotinylated poly(Glu,Tyr), 0.334 mM vanadate, desired concentration of ATP optimized for the enzyme in assay buffer (50 mM HEPES (pH=7.4), 5 mM MgCl2, 5 mM MnCl2, and 1% glycerol). Desired compound is added in a final concentration of 1% DMSO with control being vehicle of DMSO alone. MET is diluted to the optimized concentration (optimized on a lot-by-lot basis) in an enzyme diluent buffer (50 mM Tris pH=7.4, 1% glycerol, 0.03% Brij35, 0.24 mM EGTA, 1 mM DTT, and 0.003% BSA). Enzyme is added to initiate the reaction and incubated for 60 min at RT. In subdued light, appropriate amount of PT66 donor and acceptor beads (diluted 1:260 from manufacturer's provision in a 25 mM Tris HCl (pH=7.5), 400 mM NaCl, 100 mM EDTA, 0.3% BSA buffer) are added to the wells. The plates, incubated for 1 h, are read on an AlphaQuest plate reader

[2] = target: RON (human) (Homo sapiens, UniProt Q04912); assay: RON kinase AlphaScreen assay (Km of ATP); assay type: biochemical; settings: ATP at Km; at least duplicate experiments
Procedure: as §1
RON (human)—Km of ATP: RON assay is performed in a 384 well assay containing 200 ng/μL biotinylated poly(Glu,Tyr), 0.334 mM vanadate, desired concentration of ATP optimized for the enzyme in assay buffer (50 mM HEPES (pH=7.4), 12.5 mM MgCl2 and 1% glycerol). Desired compound is added in a final concentration of 1% DMSO with control being vehicle of DMSO alone. RON is diluted to the optimized (on a lot-by-lot basis) concentration in an enzyme diluent buffer (50 mM HEPES pH=7.4, 12.5 mM MgCl2 and 1% glycerol, 0.03% Brij35, 0.3 mM EGTA, lmM DTT, and 0.003% BSA). Enzyme is added to initiate the reaction and incubated for 30 min at RT. In subdued light, appropriate amount of PT66 donor and acceptor beads (diluted 1:260 from manufacturer's provision in a 25 mM Tris HCl (pH=7.5), 200 mM NaCl, 100 mM EDTA, 0.3% BSA buffer) are added to the wells. The plates, incubated for 1 h, are read on an AlphaQuest plate reader.

MET (human), sequence (P08581 25-1390): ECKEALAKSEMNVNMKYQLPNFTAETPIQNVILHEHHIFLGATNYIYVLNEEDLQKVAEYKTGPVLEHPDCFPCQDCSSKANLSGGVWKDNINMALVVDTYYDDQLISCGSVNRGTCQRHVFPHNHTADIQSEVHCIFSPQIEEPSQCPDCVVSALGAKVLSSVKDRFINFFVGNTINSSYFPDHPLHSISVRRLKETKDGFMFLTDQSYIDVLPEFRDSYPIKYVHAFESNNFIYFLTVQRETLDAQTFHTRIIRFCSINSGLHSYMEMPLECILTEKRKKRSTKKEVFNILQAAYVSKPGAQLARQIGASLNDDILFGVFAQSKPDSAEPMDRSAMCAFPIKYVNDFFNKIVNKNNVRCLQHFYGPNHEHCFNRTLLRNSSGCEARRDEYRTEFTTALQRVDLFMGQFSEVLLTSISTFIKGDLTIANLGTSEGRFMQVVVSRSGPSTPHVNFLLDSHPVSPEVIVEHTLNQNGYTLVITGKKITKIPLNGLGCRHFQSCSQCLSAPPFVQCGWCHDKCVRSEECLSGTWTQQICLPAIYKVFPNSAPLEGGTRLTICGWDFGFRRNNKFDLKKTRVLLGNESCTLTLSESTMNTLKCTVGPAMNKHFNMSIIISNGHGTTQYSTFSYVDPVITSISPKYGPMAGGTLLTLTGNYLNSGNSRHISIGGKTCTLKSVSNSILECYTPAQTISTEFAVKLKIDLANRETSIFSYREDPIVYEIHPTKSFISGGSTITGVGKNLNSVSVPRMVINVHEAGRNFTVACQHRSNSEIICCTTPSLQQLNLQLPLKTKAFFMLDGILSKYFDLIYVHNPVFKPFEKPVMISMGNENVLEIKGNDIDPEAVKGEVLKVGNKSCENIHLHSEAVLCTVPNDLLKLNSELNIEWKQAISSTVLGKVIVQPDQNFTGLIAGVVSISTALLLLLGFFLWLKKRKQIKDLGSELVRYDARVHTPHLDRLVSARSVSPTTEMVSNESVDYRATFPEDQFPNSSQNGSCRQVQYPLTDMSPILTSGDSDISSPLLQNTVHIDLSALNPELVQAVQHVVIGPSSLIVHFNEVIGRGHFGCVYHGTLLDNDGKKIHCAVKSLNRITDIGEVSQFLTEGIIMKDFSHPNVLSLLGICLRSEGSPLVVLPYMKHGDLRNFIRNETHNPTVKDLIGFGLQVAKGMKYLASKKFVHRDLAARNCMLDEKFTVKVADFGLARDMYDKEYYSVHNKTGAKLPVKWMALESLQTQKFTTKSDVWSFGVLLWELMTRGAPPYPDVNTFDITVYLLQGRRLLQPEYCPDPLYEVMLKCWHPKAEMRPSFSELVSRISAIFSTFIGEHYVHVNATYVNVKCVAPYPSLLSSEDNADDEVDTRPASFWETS
RON (human), sequence (Q04912 25-1400): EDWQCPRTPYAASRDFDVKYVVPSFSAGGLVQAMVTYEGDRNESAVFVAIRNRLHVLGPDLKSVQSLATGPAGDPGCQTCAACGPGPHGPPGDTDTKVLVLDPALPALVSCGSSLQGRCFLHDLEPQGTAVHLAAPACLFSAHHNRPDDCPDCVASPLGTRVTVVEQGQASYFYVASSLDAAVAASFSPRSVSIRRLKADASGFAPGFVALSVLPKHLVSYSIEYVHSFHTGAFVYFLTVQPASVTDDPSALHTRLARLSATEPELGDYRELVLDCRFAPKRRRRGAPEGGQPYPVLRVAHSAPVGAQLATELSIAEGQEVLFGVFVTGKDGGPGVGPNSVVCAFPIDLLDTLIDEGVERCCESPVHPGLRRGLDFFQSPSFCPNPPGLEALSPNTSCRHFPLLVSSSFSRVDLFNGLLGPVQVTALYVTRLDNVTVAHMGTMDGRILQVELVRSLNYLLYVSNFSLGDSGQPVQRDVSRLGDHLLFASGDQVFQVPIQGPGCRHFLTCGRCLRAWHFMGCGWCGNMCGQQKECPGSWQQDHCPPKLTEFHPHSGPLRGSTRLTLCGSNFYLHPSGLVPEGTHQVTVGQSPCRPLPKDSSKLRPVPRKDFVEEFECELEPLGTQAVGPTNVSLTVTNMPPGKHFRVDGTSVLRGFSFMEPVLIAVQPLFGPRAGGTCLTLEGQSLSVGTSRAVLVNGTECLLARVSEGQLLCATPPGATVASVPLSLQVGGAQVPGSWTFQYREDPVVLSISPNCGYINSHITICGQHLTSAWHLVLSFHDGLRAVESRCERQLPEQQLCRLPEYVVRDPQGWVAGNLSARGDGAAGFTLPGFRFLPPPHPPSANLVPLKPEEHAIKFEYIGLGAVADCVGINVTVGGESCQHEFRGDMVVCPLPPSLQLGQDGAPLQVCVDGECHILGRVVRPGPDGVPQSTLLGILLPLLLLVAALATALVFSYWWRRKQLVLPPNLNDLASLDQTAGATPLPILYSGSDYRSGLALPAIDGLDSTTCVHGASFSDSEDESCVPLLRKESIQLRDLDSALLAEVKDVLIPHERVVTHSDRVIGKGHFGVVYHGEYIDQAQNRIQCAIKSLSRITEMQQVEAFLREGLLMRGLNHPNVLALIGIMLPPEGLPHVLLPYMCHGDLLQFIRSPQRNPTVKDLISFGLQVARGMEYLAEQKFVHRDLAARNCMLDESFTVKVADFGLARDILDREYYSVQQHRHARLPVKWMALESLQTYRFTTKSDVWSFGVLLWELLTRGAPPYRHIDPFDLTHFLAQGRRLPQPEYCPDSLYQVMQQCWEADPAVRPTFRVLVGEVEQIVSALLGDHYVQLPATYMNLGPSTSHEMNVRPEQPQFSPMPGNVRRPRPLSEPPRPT

Row | IC50 [1] | IC50 [2] | Structure (SMILES)
1 | 0.1 to 1 µM | 1 to 20 µM | Nc1ncc(-c2cnn(C3CCNCC3)c2)cc1-c1cc2ccc(Cl)cc2cn1 [Example 41, 3-(7-Chloroisoquinolin-3-yl)-5-(1-piperidin-4-yl-1H-pyrazol-4-yl)-pyridin-2-ylamine trihydrochloride]
2 | 0.1 to 1 µM | 0.1 to 1 µM | Nc1ncc(-c2cnn(C3CCNCC3)c2)cc1-c1cc2c(Cl)cccc2cn1 [Example 42, 3-(5-Chloroisoquinolin-3-yl)-5-(1-piperidin-4-yl-1H-pyrazol-4-yl)-pyridin-2-ylamine trihydrochloride]
3 | 0.1 to 1 µM | 0.1 to 1 µM | Nc1ncc(-c2cnn(C3CCNCC3)c2)cc1-c1cc2cc(Cl)cc(Cl)c2cn1 [Example 43, 3-(6,8-Dichloroisoquinolin-3-yl)-5-(1-piperidin-4-yl-1H-pyrazol-4-yl)-pyridin-2-ylamine trihydrochloride]
4 | 1 to 20 µM | 1 to 20 µM | COc1ccc2cc(-c3cc(-c4cnn(C5CCNCC5)c4)cnc3N)ncc2c1 [Example 44, 3-(7-Methoxyisoquinolin-3-yl)-5-(1-piperidin-4-yl-1H-pyrazol-4-yl)-pyridin-2-ylamine trihydrochloride]
5 | 0.1 to 1 µM | 1 to 20 µM | COc1ccc2cnc(-c3cc(-c4cnn(C5CCNCC5)c4)cnc3N)cc2c1 [Example 45, 3-(6-Methoxyisoquinolin-3-yl)-5-(1-piperidin-4-yl-1H-pyrazol-4-yl)-pyridin-2-ylamine trihydrochloride]
6 | 0.1 to 1 µM | 1 to 20 µM | Nc1ncc(-c2cnn(C3CCNCC3)c2)cc1-c1cc2cc(F)cc(F)c2cn1 [Example 46, 3-(6,8-Difluoroisoquinolin-3-yl)-5-(1-piperidin-4-yl-1H-pyrazol-4-yl)-pyridin-2-ylamine trihydrochloride salt]
7 | 0.1 to 1 µM | 0.1 to 1 µM | Nc1ncc(-c2cnn(C3CCNCC3)c2)cc1-c1cc2cc(F)cc(Cl)c2cn1 [Example 47, 3-(8-Chloro-6-fluoroisoquinolin-3-yl)-5-(1-piperidin-4-yl-1H-pyrazol-4-yl)-pyridin-2-ylamine trihydrochloride salt]
8 | 0.1 to 1 µM | 0.1 to 1 µM | Nc1ncc(-c2cnn(C3CCNCC3)c2)cc1-c1cc2c(-c3ccco3)ccc(F)c2cn1 [Example 48, 3-(8-Fluoro-5-furan-2-ylisoquinolin-3-yl)-5-(1-piperidin-4-yl-1H-pyrazol-4-yl)-pyridin-2-ylamine]
9 | ≤ 0.1 µM | 0.1 to 1 µM | Nc1ncc(-c2cnn(C3CCNCC3)c2)cc1-c1cc2c(-c3ccoc3)ccc(F)c2cn1 [Example 49, 3-(8-Fluoro-5-furan-3-ylisoquinolin-3-yl)-5-(1-piperidin-4-yl-1H-pyrazol-4-yl)-pyridin-2-ylamine trihydrochloride]
10 | 0.1 to 1 µM | 0.1 to 1 µM | Nc1ncc(-c2cnn(C3CCNCC3)c2)cc1-c1cc2c(-c3ccccc3)ccc(F)c2cn1 [Example 50, 3-(8-Fluoro-5-phenylisoquinolin-3-yl)-5-(1-piperidin-4-yl-1H-pyrazol-4-yl)-pyridin-2-ylamine]
11 | ≤ 0.1 µM | ≤ 0.1 µM | Nc1ncc(-c2cnn(C3CCNCC3)c2)cc1-c1cc2c(-c3cn[nH]c3)ccc(F)c2cn1 [Example 51, 3-[8-Fluoro-5-(1H-pyrazol-4-yl)-isoquinolin-3-yl]-5-(1-piperidin-4-yl-1H-pyrazol-4-yl)-pyridin-2-ylamine trihydrochloride]
12 | ≤ 0.1 µM | ≤ 0.1 µM | Cn1cc(-c2ccc(F)c3cnc(-c4cc(-c5cnn(C6CCNCC6)c5)cnc4N)cc23)cn1 [Example 52, 3-[8-Fluoro-5-(1-methyl-1H-pyrazol-4-yl)-isoquinolin-3-yl]-5-(1-piperidin-4-yl-1H-pyrazol-4-yl)-pyridin-2-ylamine trihydrochloride]
13 | 0.1 to 1 µM | 0.1 to 1 µM | Nc1ncc(-c2cnn(C3CCNCC3)c2)cc1-c1cc2c(-c3ccc[nH]3)ccc(F)c2cn1 [Example 53, 3-[8-Fluoro-5-(1H-pyrrol-2-yl)-isoquinolin-3-yl]-5-(1-piperidin-4-yl-1H-pyrazol-4-yl)-pyridin-2-ylamine]

More lines, now with the values behind:

Row | Structure (SMILES) | IC50 [1] | IC50 [2]
14 | Nc1ncc(-c2cnn(C3CCNCC3)c2)cc1-c1cc2c(O)cccc2cn1 [Example 27, 3-[2-Amino-5-(1-piperidin-4-yl-1H-pyrazol-4-yl)-pyridin-3-yl]-isoquinolin-5-ol tri-hydrochloride salt] | 0.1 to 1 µM | 0.1 to 1 µM
15 | Nc1ncc(-c2cnn(C3CCNCC3)c2)cc1-c1cc2cc(O)ccc2cn1 [Example 28, 3-[2-Amino-5-(1-piperidin-4-yl-1H-pyrazol-4-yl)-pyridin-3-yl]-isoquinolin-6-ol trihydrochloride salt] | 0.1 to 1 µM | 1 to 20 µM
16 | Nc1ncc(-c2cnn(C3CCNCC3)c2)cc1-c1cc2ccc(O)cc2cn1 [Example 29, 3-[2-Amino-5-(1-piperidin-4-yl-1H-pyrazol-4-yl)-pyridin-3-yl]-isoquinolin-7-ol] | 0.1 to 1 µM | 0.1 to 1 µM
17 | COc1nc(-c2cc(-c3cnn(C4CCNCC4)c3)cnc2N)cc2ccccc12 [Example 30, 3-(1-Methoxyisoquinolin-3-yl)-5-(1-piperidin-4-yl-1H-pyrazol-4-yl)-pyridin-2-ylamine trihydrochloride salt] | 0.1 to 1 µM | 1 to 20 µM
18 | N#Cc1ccc2cnc(-c3cc(-c4cnn(C5CCNCC5)c4)cnc3N)cc2c1 [Example 31, 3-[2-Amino-5-(1-piperidin-4-yl-1H-pyrazol-4-yl)-pyridin-3-yl]-isoquinoline-6-carbonitrile trihydrochloride salt] | 1 to 20 µM | 1 to 20 µM
19 | N#Cc1ccc2cc(-c3cc(-c4cnn(C5CCNCC5)c4)cnc3N)ncc2c1 [Example 32, 3-[2-Amino-5-(1-piperidin-4-yl-1H-pyrazol-4-yl)-pyridin-3-yl]-isoquinoline-7-carbonitrile trihydrochloride salt] | 0.1 to 1 µM | 0.1 to 1 µM
20 | N#Cc1cccc2cnc(-c3cc(-c4cnn(C5CCNCC5)c4)cnc3N)cc12 [Example 33, 3-[2-Amino-5-(1-piperidin-4-yl-1H-pyrazol-4-yl)-pyridin-3-yl]-isoquinoline-5-carbonitrile trihydrochloride salt] | 0.1 to 1 µM | 0.1 to 1 µM
21 | Nc1ncc(-c2cnn(C3CCNCC3)c2)cc1-c1cc2ccc(F)cc2cn1 [Example 34, 3-(7-Fluoroisoquinolin-3-yl)-5-(1-piperidin-4-yl-1H-pyrazol-4-yl)-pyridin-2-ylamine] | 0.1 to 1 µM | 1 to 20 µM
22 | Nc1ncc(-c2cnn(C3CCNCC3)c2)cc1-c1cc2cc(F)ccc2cn1 [Example 35, 3-(6-Fluoroisoquinolin-3-yl)-5-(1-piperidin-4-yl-1H-pyrazol-4-yl)-pyridin-2-ylamine] | 1 to 20 µM | 1 to 20 µM
23 | N#Cc1cccc2cc(-c3cc(-c4cnn(C5CCNCC5)c4)cnc3N)ncc12 [Example 36, 3-[2-Amino-5-(1-piperidin-4-yl-1H-pyrazol-4-yl)-pyridin-3-yl]-isoquinoline-8-carbonitrile trihydrochloride salt] | 0.1 to 1 µM | 0.1 to 1 µM
24 | N#Cc1ccc(F)c2cnc(-c3cc(-c4cnn(C5CCNCC5)c4)cnc3N)cc12 [Example 37, 3-[2-Amino-5-(1-piperidin-4-yl-1H-pyrazol-4-yl)-pyridin-3-yl]-8-fluoro-isoquinoline-5-carbonitrile trihydrochloride] | 0.1 to 1 µM | 0.1 to 1 µM
25 | Nc1ncc(-c2cnn(C3CCNCC3)c2)cc1-c1cc2ccc(F)c(Cl)c2cn1 [Example 38, 3-(8-Chloro-7-fluoroisoquinolin-3-yl)-5-(1-piperidin-4-yl-1H-pyrazol-4-yl)-pyridin-2-ylamine trihydrochloride salt] | ≤ 0.1 µM | 0.1 to 1 µM
26 | Nc1ncc(-c2cnn(C3CCNCC3)c2)cc1-c1cc2cccc(F)c2cn1 [Example 39, 3-(8-Fluoroisoquinolin-3-yl)-5-(1-piperidin-4-yl-1H-pyrazol-4-yl)-pyridin-2-ylamine] | ≤ 0.1 µM | 0.1 to 1 µM
27 | Nc1ncc(-c2cnn(C3CCNCC3)c2)cc1-c1cc2cc(Cl)ccc2cn1 [Example 40, 3-(6-Chloroisoquinolin-3-yl)-5-(1-piperidin-4-yl-1H-pyrazol-4-yl)-pyridin-2-ylamine trihydrochloride] | 0.1 to 1 µM | 0.1 to 1 µM

From patent publication US8178668B2, “2-aminopyridine kinase inhibitors” (OSI Pharmaceuticals, LLC, priority 2008, dated 2012)
